Where a SMILES comes first, the peptide text is derived from it. Where no end group is shown, it is not given here.
The compounds below were run on cell membrane receptor of the intact CEM cell (assay: Cyclic-GMP assay: induction of cyclic-GMP production in CEM cells). Details: 4-5 min incubation at 37° C., radioimmunoassay of cyclic GMP.
Type: cell-based, human
Source text: This biological activity is evidenced by an assay measuring induction of cyclic-GMP production in a human T-cell line in comparison with thymopoietin. The induction of c-GMP production by a test peptide in this assay indicates the ability of the test peptide to bind to the thymopoietin receptor site on the cell and induce thymopoietin-like biological activity.
This assay measures the ability of the test peptide to bind to the cell membrane receptor of the intact CEM cell and selectively stimulate production of cyclic-GMP, as does thymopoietin itself.
The CEM cell line was obtained from the American Type Culture Collection and was cultured in RPMI-1640 medium supplemented with 10% heat-inactivated fetal bovine serum, 10% heat-inactivated horse serum, 2mM L-glutamine, and 50 µg/ml gentamycin at 37° C. in a humid atmosphere containing 5 percent CO2, to a final density of 3-4×10^6 cells/ml. […]
The cells in TCA were then homogenized and sonicated to release cyclic nucleotide. The resulting suspension was centrifuged at 3000 g for 20 min at 4° C. and the resulting precipitate was dissolved in 0.1N NaOH and sonicated for a further 30 minutes, after which the protein content was determined by the method of Cadman, et al., Anal. Biochem., 96, 21-23 (1979). […]
`CC(C)[C@@H]1NC(=O)[C@H](CC(=O)O)NC(=O)[C@H](CCCCN)NC(=O)[C@H](CCCNC(=N)N)NC(=O)[C@H](Cc2ccc(O)cc2)NC1=O` [peptide 1, Cyclo-(Arg-Lys-Asp-Val-Tyr)] (cyclo(DVYRK)) was tested, and the “thymopentin-like activity (cyclic GMP induced by test peptide)” value was “demonstrated thymopentin-like activity”. `CC(C)[C@@H]1NC(=O)[C@H](CC(=O)O)NC(=O)[C@H](CCCCN)NC(=O)[C@H](CCCNC(=N)N)NC(=O)CNC(=O)[C@H](Cc2ccc(O)cc2)NC1=O` [peptide 2, Cyclo-[Arg-Lys-Asp-Val-Tyr-Gly]] (cyclo(DVYGRK)) was tested, and the “thymopentin-like activity (cyclic GMP induced by test peptide)” value was “demonstrated thymopentin-like activity”.

What follows are compounds tested on isolated thymopoietin cell surface receptor protein from CEM cells (assay: not given). Details: 2.3×10^-10 M 125I-Tp, 4 μg receptor protein, TP 37-45 nonapeptide present, 12 h.
`C[C@H](N)C(=O)NCC(=O)N[C@H]1CSSC[C@@H](C(=O)O)NC(=O)[C@H](CO)NC(=O)[C@H]([C@@H](C)O)NC(=O)[C@H](Cc2ccccc2)NC(=O)[C@H]([C@@H](C)O)NC(=O)[C@H](CCCCN)NC(=O)[C@H](Cc2c[nH]c3ccccc23)NC(=O)[C@H](Cc2ccccc2)NC(=O)[C@H](Cc2ccccc2)NC(=O)[C@H](CC(N)=O)NC(=O)[C@H](CCCCN)NC1=O` [somatostatin] was tested, and the “displacement of 125I-thymopoietin (in words)” value (“displacement” for short) was “no detectable displacement”. In the case of “ACTH: adrenocorticotropic hormone (SYSMEHFRWGKPVGKKRRPVKVYPNGAEDESAEAFPLEF; Corticotropin; UniProt P01189 138-176, looked up)”, the “displacement” value is reported as “no detectable displacement”. With “CRF: corticotropin-releasing factor (SEEPPISLDLTFHLLREVLEMARAEQLAQQAHSNRKLMEII; ends and bridges not checked; UniProt P06850 154-194, looked up)” the “displacement” value was “no detectable displacement”. In the case of “glucagon: comparison peptide in the receptor assay”, the “displacement” value is reported as “no detectable displacement”. For “growth hormone: comparison peptide in the receptor assay”, the “displacement” value was “no detectable displacement”. With ubiquitin the “displacement” value was “no detectable displacement”. “β-endorphin: comparison peptide in the receptor assay (YGGFMTSEKSQTPLVTLFKNAIIKNAYKKGE; Beta-endorphin; UniProt P01189 237-267, looked up)” was tested, and the “displacement” value was “no detectable displacement”.

Source: US4547489A, “Conformationally restricted thymopentin-like compounds” (Ortho Pharmaceutical Corporation, priority 1984, dated 1985)
